Test results reported in paper PMC7732531 (Frontiers in Pharmacology, 2020).
Several values for one entry are separate records, joined by “and”; a condition that tells them apart may be missing. Equal values may be shown once. Read-outs that look alike come from different tables or passages of the source.

Key:
[1] = Metabolic stability in rat liver microsomes (NADPH / UDPGA); conditions: RLM
in vitro [2] = conditions: rat, microsomes, pH 7.4
[3] = Metabolic stability in human liver microsomes (NADPH / UDPGA); conditions: HLM
in vitro [4] = conditions: rat; for fraction unbound at 4 h, 1 µM: plasma
Protocol: The fraction of unbound YL-IPA08 in plasma and liver microsomes of rat and human, and brain homogenates of rat were determined utilizing Rapid Equilibrium Dialysis method ([Waters et al., 2008]). Rat brain homogenate was harvested in 4-fold volume (w/v) of PBS (pH 7.4). YL-IPA08 were spiked into fresh plasma, rat brain homogenate, liver microsomes (0.2 mg/ml protein) at concentration of 1 µM, and then dialyzed against […] on a shaker at 37°C for 4 h. To avoid the high non-specific binding of YL-IPA08, 0.01% Tween 80 was added in the incubation mixture. At the end of the incubation, protein was precipitated with acetonitrile (containing IS) and analyzed by LC-MS/MS. Phenacetin, quinidine, and warfarin were selected as positive control for the protein binding test.
The unbound fraction of YL-IPA08 in plasma or liver microsomes (ƒu,x) was calculated as shown in Eq. 2, and unbound fraction in the tissue homogenate (ƒu,b) was calculated according to Eq. 3. fu,x = Concbuffer chamber/Concplasma/liver microsomes chamber (2) fu,b = Concbuffer chamber/Concbrain homogenate chamber (3) The measured unbound fractions would be higher when a tissue is homogenized and diluted in buffer, the unbound fractions in an undiluted tissues (ƒu,brain) were calculated using Eq. 4 ([Kalvass and Maurer, 2002]). Undiluted fu,brain=1/D/((1/fu,brain homogenate)−1)+1/D (4) Where D represents the fold of dilution factor in brain homogenates. The free fraction of plasma and undiluted tissue is used in tissue-to-plasma exposure ratio calculation.

[5] = male, rat, in vivo, po, 1 mg/kg; for Plasma concentration: SD
Protocol: The surgical procedure for portal vein catheter insertion was performed according to reference ([Matsuda et al., 2012]). Male SD rats (250–280 g) were purchased from Beijing Vital River Laboratory Animal Technology Co., Ltd. (Beijing, China). Rats were anesthetized with 2% pentobarbital sodium (0.2–0.3 mg/100 g) intraperitoneally dosed. Cannulation into the jugular vein was performed by the method of Murakami reported ([Murakami et al., 2003]) with minor modification. Briefly, an incision of ∼0.5 cm near right clavicle was made and the jugular vein was exposed. Next, this vein was cannulated with ∼12.5 cm of silicone gel tubing (0.6 mm I.D. × 0.9 mm O.D., Skillsmodel Inc., Beijing, China). The other side of the tubing was passed through the back skin. 2.5 cm midline incision was made in the abdominal cavity close to ensiform process and the portal vein was detached. To prevent bleeding, the portal vein was ligated temporarily as the catheter was inserted. The silicone tubing (22 cm, 0.6 mm I.D. × 0.9 mm O.D., Skillsmodel Inc., Beijing, China) was inserted immediately and fixed by a purse-string suture on the portal vein. The time to reperfusion was about 1 min after intercepted blood flow. In addition, a catheter with trumpet-shaped opening was used to prevent the catheter from slipping out of the vessel and minimize the effect on blood flow. Another end of the catheter was passed subcutaneously to the skin close to the scapula.
Blood samples were collected at 0, 0.083, 0.25, 0.5, 1, 2, 4, 6, 8 and 12 h. Blood (approximately 100 µl) was collected from the jugular and portal veins into tubes containing heparin on ice and centrifuged within 1 h of collection. Plasma was harvested and stored at −20°C for bioanalysis.
FaFg was calculated using mass balance method and rat portal blood flow (Qpv) of 32 ml/min/kg, where Rb/p is used to convert plasma concentrations to blood concentrations.

in vitro [6] = format: in vitro ADME; conditions: rat
Protocol: (§1) The fraction of unbound YL-IPA08 in plasma and liver microsomes of rat and human, and brain homogenates of rat were determined utilizing Rapid Equilibrium Dialysis method ([Waters et al., 2008]). Rat brain homogenate was harvested in 4-fold volume (w/v) of PBS (pH 7.4). YL-IPA08 were spiked into fresh plasma, rat brain homogenate, liver microsomes (0.2 mg/ml protein) at concentration of 1 µM, and then dialyzed against biomatrices on a shaker at 37°C for 4 h. To avoid the high non-specific binding of YL-IPA08, 0.01% Tween 80 was added in the incubation mixture. At the end of the incubation, protein was precipitated with acetonitrile (containing IS) and analyzed by LC-MS/MS. Phenacetin, quinidine, and warfarin were selected as positive control for the protein binding test.

TSPO = assay: In vitro TSPO binding, crude mitochondrial fraction from rat cerebellum; conditions: corrected by binding fraction of 10-volume brain homogenate
Description: Unbound fractions of YL-IPA08 in rat plasma and brain homogenate were 0.6 and 0.49%, respectively. K p value of brain to plasma in rats was obtained under steady state to reach brain equilibrium in a transient dosing regimen. Then, K p,uu achieved 0.18. The unbound concentration of YL-IPA08 in brain can be estimated based on the plasma concentrations after rats receiving different dosages of YL-IPA08 via oral dosing (Table 4). For example, the unbound concentration of 6.5 pg/g in brain can be achieved after 1 mg/kg oral dosing. […] The unbound concentration in the incubates was obtained with 0.0108 nM (e.g., 4.9 pg/ml) by correcting the binding fraction of 10-volume brain homogenate (0.047).

[7] = Stability of YL-IPA08 in rat plasma (LC-MS/MS validation); format: in vitro ADME
Protocol: The quantification of YL-IPA08 in rat plasma was fully validated, and in vitro samples were particularly validated by selectivity, precision, and stability. The calibration curves of YL-IPA08 in rat plasma and in vitro incubates ranged in the concentrations of 0.5–500 ng/ml and 1–1,000 nM, respectively. The intra-day precision and inter-day precision […] were less than 15% at QC concentrations (full methodology validation results were presented in Supplementary Tables S1–S3).

[8] = Prediction of therapeutic human plasma concentration from Kp,uu; conditions: C b,u,human set to 4.9 pg/ml, rat K p,uu, human unbound fraction
Description: K p,uu in the current investigation is critical to link the PD of in vitro and in vivo results (see the result part). What is more important is that K p,uu is often preserved across species ([Di et al., 2013]). Human K p,uu can be estimated using that of rat ( Kp,uu,human≈Kp,uu,rat ). Thus, unbound drug concentration in human brain can be calculated by using the rat K p,uu, rat times the human unbound plasma concentration [ Cb,u,human≈Kp,uu,rat ×Cp,u,human ]. At the current stage, if C b,u,human (4.9 pg/ml) was set as the in vitro TPSO-binding activity concentration for the onset efficacy, therapeutic human plasma concentration would be around 27.2 ng/ml according to the calculation.

in vitro [9] = conditions: human, microsomes, pH 7.4
in vitro [10] = format: in vitro ADME; conditions: human, plasma
Protocol: as §1
The unbound fraction of YL-IPA08 in plasma or liver microsomes (ƒu,x) was calculated as shown in Eq. 2, and unbound fraction in the tissue homogenate (ƒu,b) was calculated according to Eq. 3. fu,x = Concbuffer chamber/Concplasma/liver microsomes chamber (2) fu,b = Concbuffer chamber/Concbrain homogenate chamber (3) The measured unbound fractions would be higher when a tissue is homogenized and diluted in buffer, the unbound fractions in an undiluted tissues (ƒu,brain) were calculated using Eq. 4 ([Kalvass and Maurer, 2002]). […]

[11] = Freeze-thaw three cycles, HQC (400ng/ml)
[12] = Freeze-thaw three cycles, LQC (1ng/ml)
[13] = Freeze-thaw three cycles, MQC (20ng/ml)
[14] = In auto-sample for 24 h, HQC (400ng/ml)
[15] = In auto-sample for 24 h, LQC (1ng/ml)
[16] = In auto-sample for 24 h, MQC (20ng/ml)
[17] = Room temperature for 24 h, HQC (400ng/ml)
[18] = Room temperature for 24 h, LQC (1ng/ml)
[19] = Room temperature for 24 h, MQC (20ng/ml)

**Q.** Which “Clint normalized by CYP content” value [1] does the source give for CCN(Cc1ccccn1)C(=O)Cc1c(-c2ccc(Cl)c(Cl)c2)nc2cc(C)ccn12 [YL-IPA08] here?
**A.** 3.47 ± 0.04 ml/min/nmol CYP protein

**Q.** And the microsomal CLint at 1 μM (in vitro [2])?
**A.** 53 ± 20 µL/min/mg

**Q.** And the “Clint normalized by CYP content” value [3]?
**A.** 3.47 ± 0.04 ml/min/nmol CYP protein and 2.76 ± 0.05 ^a ml/min/nmol CYP protein

**Q.** And the “Concentration, Cbuffer chamber” value (in vitro [4]; 4 h, 1 µM)?
**A.** 5.44 ± 0.33 nM

**Q.** And the “Concentration, Cplasma/microsome chamber” value (in vitro [4]; 4 h, 1 µM)?
**A.** 872.67 ± 32.52 nM

**Q.** And the “Protein biding (%)” value (in vitro [4]; 4 h, 1 µM)?
**A.** 99.40 ± 0.01%

**Q.** What about the fraction unbound at 4 h, 1 µM (in vitro [4]) of the same molecule?
**A.** ~0.01

**Q.** And the fraction unbound at 4 h, 1 µM (in vitro [4]; Unbound fraction)?
**A.** 0.006

**Q.** What about the Plasma concentration ([5]; 0.5 h) of the same molecule?
**A.** 111.40 ± 22.00 ng/mL

**Q.** And the Plasma concentration ([5]; 1 h)?
**A.** 101.93 ± 40.76 ng/mL

**Q.** And the Plasma concentration ([5]; 2 h)?
**A.** 91.33 ± 38.19 ng/mL

**Q.** And the Plasma concentration ([5]; 4 h)?
**A.** 41.78 ± 20.79 ng/mL

**Q.** And the Plasma concentration ([5]; 6 h)?
**A.** 12.85 ± 4.33 ng/mL

**Q.** And the Plasma concentration ([5]; 8 h)?
**A.** 5.62 ± 1.64 ng/mL

**Q.** And the Plasma concentration ([5]; 12 h)?
**A.** 1.98 ± 0.88 ng/mL

**Q.** And the “F a F g” value ([5]; Sprague-Dawley (SD))?
**A.** 22%

**Q.** And the “Concentration, Cbuffer chamber” value (in vitro [6]; 4 h, 1 µM)?
**A.** 168.00 ± 5.66 nM

**Q.** What about the “Concentration, Cplasma/microsome chamber” value (in vitro [6]; 4 h, 1 µM) of the same molecule?
**A.** 393.00 ± 18.03 nM

**Q.** What about the “Protein biding (%)” value (in vitro [6]; 4 h, 1 µM) of the same molecule?
**A.** 57.14 ± 2.92%

**Q.** What about the fraction unbound at 4 h, 1 µM (in vitro [6]; microsomes) of the same molecule?
**A.** 0.428

**Q.** What about the “unbound concentration in the incubates / in vitro TSPO-binding activity” value (TSPO) of the same molecule?
**A.** 4.9 pg/mL

**Q.** What about the Accuracy ([7]; 4℃ for 24 h, HQC (400ng/ml)) of the same molecule?
**A.** 99.8±8.0%

**Q.** And the Measured value ([7]; 4℃ for 24 h, HQC (400ng/ml))?
**A.** 399.00 ± 31.76 ng/mL

**Q.** What about the Accuracy ([7]; 4℃ for 24 h, LQC (1ng/ml)) of the same molecule?
**A.** 113.0±9.0%

**Q.** And the Measured value ([7]; 4℃ for 24 h, LQC (1ng/ml))?
**A.** 1.13 ± 0.09 ng/mL

**Q.** And the Accuracy ([7]; 4℃ for 24 h, MQC (20ng/ml))?
**A.** 108.7±5.3%

**Q.** What about the Measured value ([7]; 4℃ for 24 h, MQC (20ng/ml)) of the same molecule?
**A.** 21.73 ± 1.07 ng/mL

**Q.** And the Accuracy ([7]; -40℃ for 7 d, HQC (400ng/ml))?
**A.** 105.1±8.5%

**Q.** What about the Measured value ([7]; -40℃ for 7 d, HQC (400ng/ml)) of the same molecule?
**A.** 420.33 ± 33.84 ng/mL

**Q.** And the Accuracy ([7]; -40℃ for 7 d, LQC (1ng/ml))?
**A.** 105.0±6.0%

**Q.** And the Measured value ([7]; -40℃ for 7 d, LQC (1ng/ml))?
**A.** 1.05 ± 0.06 ng/mL

**Q.** And the Accuracy ([7]; -40℃ for 7 d, MQC (20ng/ml))?
**A.** 105.0±4.1%

**Q.** What about the Measured value ([7]; -40℃ for 7 d, MQC (20ng/ml)) of the same molecule?
**A.** 21.00 ± 0.82 ng/mL

**Q.** And the Accuracy [7, 11]?
**A.** 96.8±2.6%

**Q.** And the Measured value [7, 11]?
**A.** 387.33 ± 10.21 ng/mL

**Q.** What about the Accuracy [7, 12] of the same molecule?
**A.** 114.0±5.0%

**Q.** And the Measured value [7, 12]?
**A.** 1.14 ± 0.05 ng/mL

**Q.** What about the Accuracy [7, 13] of the same molecule?
**A.** 103.0±1.8%

**Q.** And the Measured value [7, 13]?
**A.** 20.60 ± 0.36 ng/mL

**Q.** What about the Accuracy [7, 14] of the same molecule?
**A.** 98.6±3.0%

**Q.** What about the Measured value [7, 14] of the same molecule?
**A.** 394.33 ± 12.06 ng/mL

**Q.** And the Accuracy [7, 15]?
**A.** 95.0±2.0%

**Q.** What about the Measured value [7, 15] of the same molecule?
**A.** 0.95 ± 0.02 ng/mL

**Q.** What about the Accuracy [7, 16] of the same molecule?
**A.** 100.4±1.2%

**Q.** And the Measured value [7, 16]?
**A.** 20.07 ± 0.25 ng/mL

**Q.** And the Accuracy [7, 17]?
**A.** 102.5±1.4%

**Q.** What about the Measured value [7, 17] of the same molecule?
**A.** 410.00 ± 5.57 ng/mL

**Q.** What about the Accuracy [7, 18] of the same molecule?
**A.** 110.0±8.0%

**Q.** What about the Measured value [7, 18] of the same molecule?
**A.** 1.10 ± 0.08 ng/mL

**Q.** What about the Accuracy [7, 19] of the same molecule?
**A.** 112.5±4.1%

**Q.** What about the Measured value [7, 19] of the same molecule?
**A.** 22.50 ± 0.82 ng/mL

**Q.** What about the “predicted therapeutic human plasma concentration” value [8] of the same molecule?
**A.** ~27.2 ng/mL

**Q.** What about the microsomal CLint at 1 μM (in vitro [9]) of the same molecule?
**A.** 200 ± 30 µL/min/mg

**Q.** And the fraction unbound at 4 h, 1 µM (in vitro [10])?
**A.** 0.001
